{"source": "patent US20180042227A1", "about": "“SYNERGISTIC ANTIMICROBIAL COMPOSITION” (Dow Global Technologies LLC, priority 2015, published 2018)", "assay_type_in_all_cases": "cell-based", "key": {"[1]": {"tested_on": "Pseudomonas aeruginosa DSM # 939", "assay": "Minimum Inhibitory Concentration (MIC) test and synergy index, Pseudomonas aeruginosa", "conditions": "alone or in the mixture, TSB pH 7.3, 30° C. for 2 days", "method": "(§1) The synergism of the biocides combination of the present invention was determined using the method described by Kull, F. C., et. al in Applied Microbiology 9:538-541 (1961). […] The Minimum Inhibitory Test (MIC) is designed to evaluate the lowest concentration of a biocide, biocide blend or biocide combination to prevent bacteria, yeast, or fungi from growing in a defined broth. After incubation, the samples are rated based on visually detectable turbidity. This test was carried out with a dilution factor of 1.5 for the biocides. • 1. Test samples were prepared in equal volumes in transparent containers. The biocide dilutions were done in tryptic soy broth (TSB) at pH of 7.3 for the bacteria and in malt extract broth (MEB) at pH 5.4 for the fungi strain. • 16 samples per biocide product and species to be tested were prepared in duplicates by serial dilution with a dilution factor of 1.5. • Per strain of micro-organism two samples not containing any biocide was added as a control. • 2. […] After incubation for 1 day at 30° C. the strains were harvested with buffer pH 7.3. • The concentration of cells was assessed by using a standard viable count technique. • For the inoculum, dilutions were made in buffer pH 7.3. • Yeast culture: [table] • 4. Reading was done visually by a growth/no growth rating. […]"}, "[2]": {"tested_on": "Staphylococcus Aureus DSM # 799", "assay": "Minimum Inhibitory Concentration (MIC) test and synergy index, Staphylococcus aureus", "conditions": "alone or in the mixture, TSB pH 7.3, 30° C. for 2 days", "method": "as §1"}, "[3]": {"tested_on": "Candida Albicans DSM # 1386", "assay": "Minimum Inhibitory Concentration (MIC) test and synergy index, Candida albicans", "conditions": "alone or in the mixture, MEB pH 5.4, 28° C. for 2 days", "method": "The synergism of the biocides combination of the present invention was determined using the method described by Kull, F. C., et. al in Applied Microbiology 9:538-541 (1961). […] The Minimum Inhibitory Test (MIC) is designed to evaluate the lowest concentration of a biocide, biocide blend or biocide combination to prevent bacteria, yeast, or fungi from growing in a defined broth. After incubation, the samples are rated based on visually detectable turbidity. This test was carried out with a dilution factor of 1.5 for the biocides. • 1. Test samples were prepared in equal volumes in transparent containers. The biocide dilutions were done in tryptic soy broth (TSB) at pH of 7.3 for the bacteria and in malt extract broth (MEB) at pH 5.4 for the fungi strain. • 16 samples per biocide product and species to be tested were prepared in duplicates by serial dilution with a dilution factor of 1.5. • Per strain of micro-organism two samples not containing any biocide was added as a control. • 2. […] Reading was done visually by a growth/no growth rating. […]"}}}
{"smiles": "CCCCCCCCCCCCN(CCCN)CCCN", "note": "[Diamine alone, N-(3-Aminopropyl)-N-dodecylpropane-1,3-diamine]", "values": [{"measurement": "Minimum Concentration (active ppm) to Inhibit Growth, Diamine", "setting": "[1]; Diamine concentration", "result": 148, "unit": "active ppm"}, {"measurement": "Minimum Concentration (active ppm) to Inhibit Growth, Diamine", "setting": "[2]; Diamine concentration", "result": 44, "unit": "active ppm"}, {"measurement": "Minimum Concentration (active ppm) to Inhibit Growth, Diamine", "setting": "[3]; Diamine concentration", "result": 148, "unit": "active ppm"}]}
{"smiles": "CNC(=O)c1ccccc1SSc1ccccc1C(=O)NC", "note": "[DTBMA alone, dithio-2,2′-bis-benzmethylamide]", "values": [{"measurement": "Minimum Concentration (active ppm) to Inhibit Growth, DTBMA", "setting": "[1]; DTBMA concentration", "result": 222, "unit": "active ppm"}, {"measurement": "Minimum Concentration (active ppm) to Inhibit Growth, DTBMA", "setting": "[2]; DTBMA concentration", "result": 20, "unit": "active ppm"}, {"measurement": "Minimum Concentration (active ppm) to Inhibit Growth, DTBMA", "setting": "[3]; DTBMA concentration", "result": 148, "unit": "active ppm"}]}
